{"source": "paper PMC2951065", "about": "(Journal of Medicinal Chemistry, 2010)", "key": {"[1]": {"assay": "Precipitation in cell culture medium", "format": "physicochemical"}, "[2]": {"target": "T1, phosphatase domain of PHLPP2 (Homo sapiens, UniProt Q6ZVD8)", "T1 sequence (Q6ZVD8 785-1033 limits assumed)": "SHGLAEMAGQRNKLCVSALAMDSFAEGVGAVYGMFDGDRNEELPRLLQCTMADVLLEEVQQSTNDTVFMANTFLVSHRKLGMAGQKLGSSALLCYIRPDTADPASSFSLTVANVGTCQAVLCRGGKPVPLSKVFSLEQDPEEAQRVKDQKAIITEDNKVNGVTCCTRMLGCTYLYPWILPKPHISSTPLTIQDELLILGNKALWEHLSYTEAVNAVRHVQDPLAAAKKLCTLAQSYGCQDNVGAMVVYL", "assay": "In vitro inhibition of PHLPP2 phosphatase domain, pNPP as substrate", "format": "biochemical", "details": "for mechanism (type) of inhibition: with respect to pNPP"}, "COS 7 cells [3]": {"system": "COS 7 cells", "assay": "Agonist", "format": "cell-based"}, "PP2B/calcineurin": {"target": "PP2B/calcineurin (Homo sapiens, UniProt Q08209)", "sequence (P63098 whole entry, other chains not shown)": "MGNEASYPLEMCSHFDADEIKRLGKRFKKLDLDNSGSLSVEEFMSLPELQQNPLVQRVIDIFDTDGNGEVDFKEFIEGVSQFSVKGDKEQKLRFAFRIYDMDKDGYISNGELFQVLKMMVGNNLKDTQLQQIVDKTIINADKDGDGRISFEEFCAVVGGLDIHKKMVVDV", "assay": "Selectivity toward other phosphatases: PP2B, pNPP", "format": "biochemical"}, "PP2Cα": {"target": "T2, PP2Cα (Homo sapiens, UniProt P35813)", "T2 sequence (P35813 1-382)": "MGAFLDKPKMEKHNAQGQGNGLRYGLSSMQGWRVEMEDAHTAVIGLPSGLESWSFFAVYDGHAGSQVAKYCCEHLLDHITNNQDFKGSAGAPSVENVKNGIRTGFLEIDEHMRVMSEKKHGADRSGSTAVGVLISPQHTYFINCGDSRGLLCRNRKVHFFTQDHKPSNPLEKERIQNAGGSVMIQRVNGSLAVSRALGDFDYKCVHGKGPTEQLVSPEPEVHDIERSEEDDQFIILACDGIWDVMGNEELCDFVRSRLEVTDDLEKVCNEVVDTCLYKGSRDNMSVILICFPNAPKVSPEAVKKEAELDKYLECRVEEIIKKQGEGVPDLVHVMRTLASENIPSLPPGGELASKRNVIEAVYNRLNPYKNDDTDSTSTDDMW", "assay": "Selectivity toward other phosphatases: PP2Cα, pNPP", "format": "biochemical"}, "COS 7 cells [4]": {"system": "COS 7 cells", "assay": "Apoptosis assay: etoposide-induced cell death, Trypan Blue exclusion", "details": "for etoposide-induced increase in apoptotic cells: COS 7, 0.1% FBS"}, "PP1": {"target": "PP1 (Oryctolagus cuniculus, UniProt P62139)", "sequence (P62139 whole entry)": "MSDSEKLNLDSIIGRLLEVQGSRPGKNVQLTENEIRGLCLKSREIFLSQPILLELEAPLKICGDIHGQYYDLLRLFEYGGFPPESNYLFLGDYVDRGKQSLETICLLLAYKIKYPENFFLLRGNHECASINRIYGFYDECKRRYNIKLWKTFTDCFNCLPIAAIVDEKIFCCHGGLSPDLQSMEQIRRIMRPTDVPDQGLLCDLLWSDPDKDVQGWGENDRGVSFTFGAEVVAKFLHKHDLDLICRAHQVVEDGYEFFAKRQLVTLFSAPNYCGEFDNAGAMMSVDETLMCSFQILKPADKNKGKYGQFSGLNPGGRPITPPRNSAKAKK", "assay": "Selectivity toward other phosphatases: PP1, pNPP", "format": "biochemical"}, "COS 7 cells [5]": {"system": "COS 7 cells", "format": "cell-based"}, "[6]": {"details": "highest concentration tested (100 μM)"}, "[7]": {"details": "10-fold higher concentration than 10 μM"}, "[8]": {"details": "50 μM pretreatment 30 min, etoposide 24 h"}}, "note": "Where a name gives a salt, the structure may show the parent alone."}
{"molecule": "Nc1c(S(=O)(=O)O)cc(Nc2cccc(S(N)(=O)=O)c2)c2c1C(=O)c1ccccc1C2=O", "note": "[Compound 1, 1-amino-9,10-dioxo-4-(3-sulfamoylanilino)anthracene-2-sulfonic acid, sodium salt]", "values": [{"measurement": "concentration at which compound tends to precipitate in the cell culture medium", "setting": "[1]", "value": "> 300", "unit": "µM"}, {"measurement": "IC50", "setting": "[2]", "value": "5.45 ± 0.05", "unit": "µM"}, {"measurement": "selectivity for PHLPP over the other phosphatases tested", "setting": "[2]; vs PP1, PP2B, PP2Cα", "value": "over an order of magnitude"}, {"measurement": "mechanism (type) of inhibition", "setting": "[2]", "value": "noncompetitive"}, {"measurement": "EGF-evoked increase in p308 phosphorylation", "setting": "COS 7 cells [3]; 50 μM pretreatment, then EGF", "value": "approximately 6 fold"}, {"measurement": "basal phosphorylation at Ser473 compared with DMSO", "setting": "COS 7 cells [3]; 50 μM, 35 min pretreatment, serum-starved COS 7", "value": "significantly higher"}, {"measurement": "effect on PP2B activity", "setting": "PP2B/calcineurin; 10 μM compound", "value": "no significant effect"}, {"measurement": "effect on PP2B activity", "setting": "PP2B/calcineurin; [6]", "value": "neither molecule affected the activity"}, {"measurement": "phosphorylation of Akt on Ser 473", "setting": "HT29 cells; HT29, 5% FBS, 24 h, 100 or 250 μM", "value": "increased Akt phosphorylation and activity in cells"}, {"measurement": "phosphorylation of downstream substrates GSK3 α/β (Ser21/9) and FoxO1/3α (Thr 24/32); Akt activity", "setting": "HT29 cells; HT29, 24 h, 100 or 250 μM", "value": "corresponding increases"}, {"measurement": "IC50", "setting": "PP2Cα", "value": "~100", "unit": "µM"}, {"measurement": "effect on PP2Cα activity", "setting": "PP2Cα; 10 μM compound", "value": "no significant effect"}, {"measurement": "inhibition of PP2Cα", "setting": "PP2Cα; [7]", "value": "approximately 50%"}, {"measurement": "basal level of apoptotic cells", "setting": "COS 7 cells [4]; 50 μM compound, no etoposide", "value": "approximately 12%"}, {"measurement": "reduction of the magnitude of the etoposide-induced increase in apoptotic cells", "setting": "COS 7 cells [4]; [8]", "value": "approximately 30%"}, {"measurement": "etoposide-induced increase in apoptotic cells", "setting": "COS 7 cells [4]; [8]", "value": "2.6 ± 0.3", "unit": "fold"}, {"measurement": "IC50", "setting": "PP1", "value": "~100", "unit": "µM"}, {"measurement": "effect on PP1 activity", "setting": "PP1; 10 μM compound", "value": "no significant effect"}, {"measurement": "inhibition of PP1", "setting": "PP1; [7]", "value": "approximately 50%"}, {"measurement": "selectivity for Ser473 compared to Thr308", "setting": "COS 7 cells [5]", "value": "almost 1 order of magnitude"}, {"measurement": "increase in the phosphorylation of Ser473 (basal Akt)", "setting": "COS 7 cells [5]; serum-starved COS 7, 35 min", "value": "approximately 6 fold"}]}
{"molecule": "COc1ccc(NCc2c(O)ccc3ccccc23)cc1", "note": "[Compound 2]", "values": [{"measurement": "mechanism (type) of inhibition", "setting": "[2]", "value": "Noncompetitive"}]}
{"molecule": "COc1cc(NCCC2CCCCN2)c2ncccc2c1", "note": "(stereo not drawn) [Compound 4]", "values": [{"measurement": "mechanism (type) of inhibition", "setting": "[2]", "value": "uncompetitive"}, {"measurement": "toxicity to cells", "setting": "HT29 cells; HT29, 24 h", "value": "induced cells to detach from culture dishes, reflecting toxicity"}, {"measurement": "phosphorylation of downstream substrates GSK3 α/β (Ser21/9) and FoxO1/3α (Thr 24/32); Akt activity", "setting": "HT29 cells; HT29, 24 h, 100 or 250 μM", "value": "corresponding increases"}]}
{"molecule": "NS(=O)(=O)c1ccc(/N=N/c2ncccc2O)cc1", "note": "[Compound 7]", "values": [{"measurement": "mechanism (type) of inhibition", "setting": "[2]", "value": "Competitive"}]}
{"molecule": "Cc1cc(/N=N/c2ccc(/N=N/c3ccc(O)c(C(=O)O)c3)cc2)c(N)cc1N", "note": "[Compound 13, 1,3-[[4-(2,4-diamino-5-methylphenyl)diazenylphenyl]hydrazinylidene]-6-oxocyclohexa-1,4-diene-1-carboxylic acid]", "values": [{"measurement": "mechanism (type) of inhibition", "setting": "[2]", "value": "noncompetitive"}, {"measurement": "effect on PP2B activity", "setting": "PP2B/calcineurin; [6]", "value": "neither molecule affected the activity"}, {"measurement": "IC50", "setting": "PP2Cα", "value": "~100", "unit": "µM"}, {"measurement": "effect on etoposide-induced increase in apoptotic cells", "setting": "COS 7 cells [4]; [8]", "value": "essentially abolished"}, {"measurement": "IC50", "setting": "PP1", "value": "~100", "unit": "µM"}, {"measurement": "modulation of Ser473 phosphorylation", "setting": "COS 7 cells [5]; cells grown in serum, data not shown", "value": "considerably less effective"}, {"measurement": "increase in the phosphorylation of Ser473 (basal Akt)", "setting": "COS 7 cells [5]; serum-starved COS 7, 35 min", "value": "approximately 4 fold"}, {"measurement": "sensitivity of phosphorylation of Akt on Thr308 compared with Ser473", "setting": "COS 7 cells [5]; serum-starved COS 7, 35 min", "value": "not significantly different"}]}
{"molecule": "COc1ccc2nc3cc(Cl)ccc3c(Nc3ccc(C(=O)O)cc3)c2c1", "note": "[Compound 24]", "values": [{"measurement": "phosphorylation of downstream substrates GSK3 α/β (Ser21/9) and FoxO1/3α (Thr 24/32); Akt activity", "setting": "HT29 cells; HT29, 24 h, 100 or 250 μM", "value": "corresponding increases"}]}
{"molecule": "COc1cc([C@@H]2c3cc4c(cc3[C@@H](O[C@@H]3O[C@@H]5CO[C@@H](C)O[C@H]5[C@H](O)[C@H]3O)[C@H]3COC(=O)[C@H]23)OCO4)cc(OC)c1O", "note": "[Etoposide, etoposide, reference compound]", "values": [{"measurement": "etoposide-induced increase in apoptotic cells", "setting": "COS 7 cells [4]; [8]", "value": "3.4 ± 0.4", "unit": "fold"}]}
